Laboratory results taken from the OPERA property sets (Mansouri et al. 2018).

| SMILES | logP |
| --- | --- |
| CCOC(=O)c1ccsc1 | 2.32 |
| CCCOC(=O)c1ccsc1 | 3.03 |
| CCCOC(=O)c1cccs1 | 3.01 |
| CNC(=O)c1cccs1 | 0.84 |
| CCCNC(=O)c1ccsc1 | 1.65 |
| Clc1ccsc1 | 2.55 |
| COC(=O)c1cccs1 | 1.83 |
| CCCNC(=O)c1cccs1 | 1.68 |

More lines, now with the values ahead:

| logP | SMILES |
| --- | --- |
| 1.18 | CCNC(=O)c1cccs1 |
| 0.81 | CNC(=O)c1ccsc1 |
| 2.13 | COc1cccs1 |
| 1.18 | CCNC(=O)c1ccsc1 |
